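Each compound was tested at five concentrations against cells in 96-well plates for 48 hours. The concentration for 50% growth inhibition is given as GI50.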 Active and inactive are the calls of the source. Cut-off read from the data, not from the text of the source: active = GI50 up to about 1.1 µM and inactive = higher.
Columns and labels:
Assay in all cases: inhibition of tumour cell growth, NCI panel, 48 h
786-0 = tested on: 786-0
A498 = tested on: A498
COLO 205 = tested on: COLO 205
EKVX = tested on: EKVX
HL-60 = tested on: HL-60
IGROV-1 = tested on: IGROV-1
KM12 = tested on: KM12
LOX IMVI = tested on: LOX IMVI
MOLT-4 = tested on: MOLT-4
Malme-3M = tested on: Malme-3M
SF-268 = tested on: SF-268
SK-MEL-28 = tested on: SK-MEL-28
SNB-19 = tested on: SNB-19
SNB-75 = tested on: SNB-75
U-251 = tested on: U-251
RPMI-8226 = tested on: RPMI-8226

Compound	GI50 (786-0)	GI50 (A498)	GI50 (COLO 205)	GI50 (EKVX)	GI50 (HL-60)	GI50 (IGROV-1)	GI50 (KM12)	GI50 (LOX IMVI)	GI50 (MOLT-4)	GI50 (Malme-3M)	GI50 (SF-268)	GI50 (SK-MEL-28)	GI50 (SNB-19)	GI50 (SNB-75)	GI50 (U-251)	GI50 (RPMI-8226)
CCOC(=N)CC(=O)Nc1ccccc1CC	> 100 µM (inactive)	> 100 µM (inactive)	> 100 µM (inactive)	> 100 µM (inactive)	> 100 µM (inactive)	> 100 µM (inactive)	> 100 µM (inactive)	> 100 µM (inactive)	> 100 µM (inactive)	> 100 µM (inactive)	> 100 µM (inactive)	> 100 µM (inactive)	> 100 µM (inactive)	> 100 µM (inactive)	> 100 µM (inactive)	–
CC1=C(C(=O)Nc2ccc([N+](=O)[O-])cc2)C(c2ccc3c(c2)OCO3)C(C(=O)Nc2ccc([N+](=O)[O-])cc2)=C(C)N1	14.1 µM (inactive)	14.2 µM (inactive)	4.13 µM (inactive)	8.2 µM (inactive)	–	8.41 µM (inactive)	3.8 µM (inactive)	–	0.321 µM (active)	23.9 µM (inactive)	> 100 µM (inactive)	24.9 µM (inactive)	> 100 µM (inactive)	6.18 µM (inactive)	30.1 µM (inactive)	5.04 µM (inactive)
CC(Oc1ccc2cc(C(=O)c3ccccc3)c(=O)oc2c1)C(=O)O (stereo unspecified)	> 100 µM (inactive)	> 100 µM (inactive)	> 100 µM (inactive)	> 100 µM (inactive)	> 100 µM (inactive)	> 100 µM (inactive)	> 100 µM (inactive)	> 100 µM (inactive)	> 100 µM (inactive)	> 100 µM (inactive)	> 100 µM (inactive)	> 100 µM (inactive)	> 100 µM (inactive)	> 100 µM (inactive)	> 100 µM (inactive)	–
C[C@@H]1C(=O)CC2C(C)(C)CCC[C@]2(C)[C@@]12CC[C@]1(C=COC1)O2 (stereo partly specified)	33.3 µM (inactive)	–	32.3 µM (inactive)	42.9 µM (inactive)	18.7 µM (inactive)	36.9 µM (inactive)	39.4 µM (inactive)	33.4 µM (inactive)	16 µM (inactive)	27.8 µM (inactive)	64.7 µM (inactive)	–	61 µM (inactive)	–	–	–
COC(=O)C1CC/C(=N/c2ccc(C)cc2C)N1 (stereo unspecified)	> 100 µM (inactive)	> 100 µM (inactive)	> 100 µM (inactive)	> 100 µM (inactive)	> 100 µM (inactive)	> 100 µM (inactive)	> 100 µM (inactive)	> 100 µM (inactive)	> 100 µM (inactive)	> 100 µM (inactive)	> 100 µM (inactive)	> 100 µM (inactive)	> 100 µM (inactive)	99.3 µM (inactive)	> 100 µM (inactive)	> 100 µM (inactive)
CN1C(=O)C(=O)N2c3ccc(Cl)cc3C3(c4ccccc4)N=CC12O3 (stereo unspecified)	6.95 µM (inactive)	10.8 µM (inactive)	4.02 µM (inactive)	8.87 µM (inactive)	2.25 µM (inactive)	7.28 µM (inactive)	3.55 µM (inactive)	1.53 µM (inactive)	3.07 µM (inactive)	20 µM (inactive)	7.53 µM (inactive)	3.44 µM (inactive)	12.9 µM (inactive)	3.6 µM (inactive)	9.48 µM (inactive)	2.19 µM (inactive)
CC(C)(C)C#C[P+](c1ccccc1)(c1ccccc1)c1ccccc1	0.337 µM (active)	0.23 µM (active)	0.17 µM (active)	0.566 µM (active)	0.057 µM (active)	0.578 µM (active)	0.238 µM (active)	0.328 µM (active)	0.197 µM (active)	0.349 µM (active)	0.203 µM (active)	0.0728 µM (active)	0.274 µM (active)	0.0348 µM (active)	0.119 µM (active)	0.0377 µM (active)
COC(=O)c1c[nH]cc1CCc1c[nH]cc1C(=O)OC	> 100 µM (inactive)	48.2 µM (inactive)	> 100 µM (inactive)	> 100 µM (inactive)	> 100 µM (inactive)	> 100 µM (inactive)	> 100 µM (inactive)	> 100 µM (inactive)	> 100 µM (inactive)	> 100 µM (inactive)	> 100 µM (inactive)	> 100 µM (inactive)	> 100 µM (inactive)	–	> 100 µM (inactive)	–
CC(C)c1cc(OCC(O)CO)cc(C(C)C)c1 (stereo unspecified)	> 100 µM (inactive)	> 100 µM (inactive)	> 100 µM (inactive)	> 100 µM (inactive)	> 100 µM (inactive)	> 100 µM (inactive)	> 100 µM (inactive)	> 100 µM (inactive)	> 100 µM (inactive)	> 100 µM (inactive)	> 100 µM (inactive)	> 100 µM (inactive)	> 100 µM (inactive)	> 100 µM (inactive)	> 100 µM (inactive)	–
Cc1ccc(NC(=O)CCC(=O)C(C#N)c2ccc(Cl)cc2)cc1C (stereo unspecified)	> 100 µM (inactive)	> 100 µM (inactive)	–	> 100 µM (inactive)	> 100 µM (inactive)	> 100 µM (inactive)	> 100 µM (inactive)	> 100 µM (inactive)	> 100 µM (inactive)	> 100 µM (inactive)	> 100 µM (inactive)	> 100 µM (inactive)	> 100 µM (inactive)	> 100 µM (inactive)	> 100 µM (inactive)	> 100 µM (inactive)
NS(=O)(=O)c1cc2c(cc1Cl)NC(C(=O)NNC(=O)c1ccncc1)=NS2(=O)=O	> 100 µM (inactive)	–	> 100 µM (inactive)	> 100 µM (inactive)	> 100 µM (inactive)	> 100 µM (inactive)	> 100 µM (inactive)	> 100 µM (inactive)	> 100 µM (inactive)	> 100 µM (inactive)	> 100 µM (inactive)	> 100 µM (inactive)	> 100 µM (inactive)	> 100 µM (inactive)	–	–
O=c1[nH]c(-c2ccccc2)nc2cc(Cl)ccc12	> 100 µM (inactive)	> 100 µM (inactive)	–	> 100 µM (inactive)	> 100 µM (inactive)	> 100 µM (inactive)	> 100 µM (inactive)	–	> 100 µM (inactive)	> 100 µM (inactive)	–	> 100 µM (inactive)	–	> 100 µM (inactive)	> 100 µM (inactive)	> 100 µM (inactive)
CN(C)CCNC(=O)Cc1ccccc1Nc1c(Cl)cccc1Cl	12.2 µM (inactive)	–	16.4 µM (inactive)	17.4 µM (inactive)	14.7 µM (inactive)	19.1 µM (inactive)	18.5 µM (inactive)	13.6 µM (inactive)	16 µM (inactive)	–	18.2 µM (inactive)	18.5 µM (inactive)	17.2 µM (inactive)	12.7 µM (inactive)	10.9 µM (inactive)	16.6 µM (inactive)
c1ccc(Nc2nnc(CSc3nc(-c4ccccc4)c(-c4ccccc4)[nH]3)s2)cc1	18.2 µM (inactive)	26.5 µM (inactive)	12.3 µM (inactive)	19.4 µM (inactive)	13.2 µM (inactive)	21.3 µM (inactive)	21.1 µM (inactive)	17 µM (inactive)	10.1 µM (inactive)	19.2 µM (inactive)	24.4 µM (inactive)	24.2 µM (inactive)	–	44.4 µM (inactive)	13.7 µM (inactive)	11.5 µM (inactive)
CCOC(=O)Cc1nc2ccccc2s1	18.9 µM (inactive)	18.5 µM (inactive)	38.6 µM (inactive)	39.4 µM (inactive)	18.2 µM (inactive)	39 µM (inactive)	> 10 µM (inactive)	17.8 µM (inactive)	25.6 µM (inactive)	16.3 µM (inactive)	18.6 µM (inactive)	15 µM (inactive)	44.5 µM (inactive)	29.3 µM (inactive)	17 µM (inactive)	–
COC(=O)c1c(-c2cc(OC)c(OC)c(OC)c2)oc2ccccc2c1=O	> 100 µM (inactive)	> 100 µM (inactive)	97.7 µM (inactive)	> 100 µM (inactive)	36.7 µM (inactive)	> 100 µM (inactive)	> 100 µM (inactive)	37.4 µM (inactive)	70.1 µM (inactive)	> 100 µM (inactive)	–	–	> 100 µM (inactive)	58.7 µM (inactive)	87.3 µM (inactive)	36.2 µM (inactive)
CC1CC(C)C(C(O)CC2CC(=O)N(c3ccccc3)C(=O)C2)C(O)C1 (stereo unspecified)	> 100 µM (inactive)	> 100 µM (inactive)	> 100 µM (inactive)	> 100 µM (inactive)	> 100 µM (inactive)	> 100 µM (inactive)	> 100 µM (inactive)	> 100 µM (inactive)	> 100 µM (inactive)	> 100 µM (inactive)	> 100 µM (inactive)	> 100 µM (inactive)	> 100 µM (inactive)	> 100 µM (inactive)	> 100 µM (inactive)	> 100 µM (inactive)
CCCCCCCCCCCCCCCC(=O)OCCOCCOCCOCCOCCOC(=O)CCCCCCCCCCCCCCC	> 100 µM (inactive)	> 100 µM (inactive)	> 100 µM (inactive)	> 100 µM (inactive)	> 100 µM (inactive)	> 100 µM (inactive)	> 100 µM (inactive)	> 100 µM (inactive)	> 100 µM (inactive)	> 100 µM (inactive)	> 100 µM (inactive)	> 100 µM (inactive)	> 100 µM (inactive)	> 10 µM (inactive)	> 100 µM (inactive)	> 100 µM (inactive)
CC(C(=O)n1nnc2ccccc21)N(c1ccccc1)c1ccccc1 (stereo unspecified)	> 100 µM (inactive)	–	> 100 µM (inactive)	68.2 µM (inactive)	45.1 µM (inactive)	> 100 µM (inactive)	–	76.6 µM (inactive)	99.5 µM (inactive)	84.7 µM (inactive)	> 100 µM (inactive)	> 100 µM (inactive)	48.3 µM (inactive)	69.5 µM (inactive)	43.5 µM (inactive)	52.7 µM (inactive)

From ChEMBL document CHEMBL1201862, “PubChem BioAssay data set” (2004)
